This note sets out measurements from ChEMBL document CHEMBL1154628, “Discovery and optimization of substituted 1-(1-phenyl-1H-pyrazol-3-yl)methanamines as potent and efficacious type II calcimimetics” (J Med Chem, 2009).

SMILES strings stand for the structures. The source made the active and inactive calls. The calls are words filed in the database; no cut-off is given here.

Data set [1] deals with T1, Extracellular calcium-sensing receptor (Homo sapiens, UniProt P41180).
T1 sequence (P41180 whole entry): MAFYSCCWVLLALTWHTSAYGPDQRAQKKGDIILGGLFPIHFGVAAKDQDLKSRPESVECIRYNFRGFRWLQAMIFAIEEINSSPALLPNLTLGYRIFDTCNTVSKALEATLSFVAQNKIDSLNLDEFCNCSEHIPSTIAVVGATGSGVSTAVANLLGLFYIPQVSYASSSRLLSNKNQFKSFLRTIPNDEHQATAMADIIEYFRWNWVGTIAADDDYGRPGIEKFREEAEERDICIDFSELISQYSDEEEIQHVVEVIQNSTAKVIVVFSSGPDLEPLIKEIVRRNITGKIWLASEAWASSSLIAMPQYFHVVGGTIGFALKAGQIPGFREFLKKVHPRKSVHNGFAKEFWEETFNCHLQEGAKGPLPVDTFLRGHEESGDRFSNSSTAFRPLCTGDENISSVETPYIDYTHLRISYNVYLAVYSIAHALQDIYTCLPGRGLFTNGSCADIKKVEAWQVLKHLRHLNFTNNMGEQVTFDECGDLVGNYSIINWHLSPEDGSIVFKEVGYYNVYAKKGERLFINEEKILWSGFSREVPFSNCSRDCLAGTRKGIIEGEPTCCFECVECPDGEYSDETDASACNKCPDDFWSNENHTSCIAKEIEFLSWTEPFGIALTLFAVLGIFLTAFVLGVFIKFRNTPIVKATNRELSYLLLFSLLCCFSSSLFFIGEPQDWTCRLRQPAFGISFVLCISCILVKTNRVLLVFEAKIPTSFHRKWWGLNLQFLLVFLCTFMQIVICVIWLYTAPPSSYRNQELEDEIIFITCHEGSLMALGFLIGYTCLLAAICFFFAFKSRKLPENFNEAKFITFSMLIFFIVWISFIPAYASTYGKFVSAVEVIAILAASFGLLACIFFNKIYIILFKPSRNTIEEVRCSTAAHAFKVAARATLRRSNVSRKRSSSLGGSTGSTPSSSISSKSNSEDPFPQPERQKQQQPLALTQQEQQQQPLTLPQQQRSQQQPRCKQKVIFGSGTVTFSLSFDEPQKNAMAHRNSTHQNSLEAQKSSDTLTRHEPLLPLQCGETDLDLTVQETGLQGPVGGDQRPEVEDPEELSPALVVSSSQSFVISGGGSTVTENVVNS
As to the kind of experiment: Activity at human CaSR expressed in HEK293 cells assessed as calcium release by FLIPR assay. In kind it is functional, cell-based.

In data set [2] the test system is Rattus norvegicus. As to the kind of experiment: AUC in Sprague-Dawley rat at 2 mg/kg, po. The class given is ADME, organism-based, Plasma. On the set-up: dose 2 mg/kg, route oral. To be noted: in vivo.
Data set [3] has as its system Rattus norvegicus. As to the kind of experiment: Oral bioavailability in Sprague-Dawley rat at 2 mg/kg. The class given is ADME, organism-based. To be noted: in vivo.
Data set [4] is described as follows: Mean residence time in Sprague-Dawley rat at 0.5 mg/kg, iv. The class given is ADME, organism-based. Set-up: dose 0.5 mg/kg, route intravenous. Conditions: in vivo.
Data set [5] relates to Rattus norvegicus. Description: Clearance in Sprague-Dawley rat at 0.5 mg/kg, iv. Conditions: in vivo. In kind it is ADME, organism-based. Set-up: dose 0.5 mg/kg, route intravenous.
Data set [6] is described as follows: Volume of distribution at steady state in Sprague-Dawley rat at 0.5 mg/kg, iv. Conditions: in vivo, read-out: Vdss. In kind it is ADME, organism-based. Set-up: dose 0.5 mg/kg, route intravenous.
Data set [7] deals with Rattus norvegicus. As to the kind of experiment: Inhibition of hyperparathyroidism in Sprague-Dawley rat pharmacodynamic model assessed as decrease in PTH levels at 30 mg/kg, po. To be noted: Thyroid gland. In kind it is functional, organism-based. On the set-up: dose 30 mg/kg.
Data set [8] relates to Rattus norvegicus. Description: Cmax in Sprague-Dawley rat at 2 mg/kg, po. In kind it is ADME, organism-based. To be noted: in vivo. Set-up: dose 2 mg/kg, route oral.
The test system of data set [9] is Rattus norvegicus. As to the kind of experiment: Inhibition of hyperparathyroidism in Sprague-Dawley rat pharmacodynamic model assessed as PTH levels at 3 mg/kg, po. The class given is functional.

What is called EC50 is the midpoint of the concentration-response curve. `CC(C)[C@@H](N[C@H](C)c1ccccc1)c1ccn(-c2ccc(C(F)(F)F)cc2)n1`: the EC50 in data set [1] stood at 2.34 µM.
Turning to `COc1cc([C@@H](C)N[C@H](C)c2ccccc2)nn1-c1ccc(C(F)(F)F)cc1`, the EC50 in [1] was found to be 0.07 µM.
In the case of `COc1cc([C@@H](C)N[C@H](C)c2cccc(Cl)c2)nn1-c1cccc(Cl)c1`, the EC50 in [1] came out at 0.057 µM.
Still for that read-out and setting: the value for `C[C@@H](NCc1ccn(-c2ccccc2)n1)c1ccccc1` was 1.58 µM; that for `C[C@@H](NCc1nc(-c2ccccc2)co1)c1ccccc1` was over 5 µM.
In general, AUC refers to concentration integrated over time. A low value points to less exposure. The MRT is a mean duration of stay, worked out from the concentration-time curve. Usually Cmax stands for the highest concentration seen after dosing. Regarding `COc1cccc([C@@H](C)NCCCc2ccccc2Cl)c1` [TECALCET], the AUC with Rattus norvegicus [2] stood at 22 ng·h/mL. In the data set on Rattus norvegicus [3], this molecule registered an F of 5%. This molecule also showed a mean residence time MRT in data set [4] of 1.74 h. Besides, the CL with Rattus norvegicus [5] came to 65 mL/min/kg. Besides, the EC50 in data set [1] turned out to be 0.194 µM. Moreover, the Vd in data set [6] worked out at 6.8 L/kg. Besides, the outcome with Rattus norvegicus [7] was Active. The molecule further registered a Cmax in the data set on Rattus norvegicus [8] of 4.2 ng/mL.
As for `COc1cc([C@@H](C)N[C@H](C)c2cccc(Cl)c2)nn1-c1ccc(C(=O)O)cc1`, the EC50 in [1] came out at 1.92 µM.
The same measure, in the same setting: then `C[C@@H](NCc1nc(-c2ccccc2)cn1C)c1ccccc1`, with over 5 µM; and `C[C@@H](N[C@H](C)c1ccn(-c2ccc(C(F)(F)F)cc2)n1)c1ccccc1`, with 0.233 µM.
With `COc1cc([C@@H](C)N[C@H](C)c2cccc(Cl)c2)nn1-c1ccc(Br)cc1`, the AUC in the data set on Rattus norvegicus [2] was 444 ng·h/mL. Also, the Activity in the data set on Rattus norvegicus [9] was under 3 pg/mL. The F in the data set with Rattus norvegicus [3] is 24%. Moreover, in data set [4], the mean residence time MRT stood at 11.8 h. In the data set on Rattus norvegicus [5], the CL came to 21.7 mL/min/kg. In addition, the EC50 in data set [1] was found to be 0.023 µM. For the same molecule, the Vd in data set [6] worked out at 7 L/kg.
`C[C@@H](NCc1cnc(-c2ccccc2)s1)c1ccccc1`: in [1], the EC50 is over 5 µM.
Still for that read-out and setting: then `C[C@@H](N[C@H](C)c1ccn(-c2ccc(C(F)(F)F)cc2)n1)c1cccc(Cl)c1`, with 0.092 µM.
The same measure, in the same setting: then `C[C@@H](N[C@H](C)c1ccn(-c2ccc(C(F)(F)F)cc2)n1)c1cccc(F)c1`, with 0.148 µM.
Take `C[C@@H](NCc1nc(-c2ccccc2)c[nH]1)c1ccccc1`: the EC50 in data set [1] was over 5 µM.
Take `COc1cc([C@@H](C)N[C@H](C)c2cccc(Cl)c2)nn1-c1ccc(-c2nnn[nH]2)cc1`: the EC50 in data set [1] is over 5 µM.
Take `CC[C@@H](N[C@H](C)c1ccccc1)c1ccn(-c2ccc(C(F)(F)F)cc2)n1`: the EC50 in data set [1] stood at 1.18 µM.
As for `C[C@@H](NCc1nc(-c2ccccc2)cs1)c1ccccc1`, in data set [1], the EC50 is over 5 µM.
On the same count and under the same terms, the value for `COc1cc([C@@H](C)N[C@H](C)c2cccc(Cl)c2)nn1-c1ccc(C(F)(F)F)cc1` was 0.041 µM.
